Measured values: patent US20230398130A1, “METHODS AND COMPOSITIONS FOR DIFFERENTIATING STEM CELLS” (Massachusetts Institute of Technology, priority 2020, published 2023)

Legend:
ISC-enriched organoids [1] = assay: Primary screen, 384-well 2.5-D organoid differentiation (ENR+CD, 6 days, Target Selective Inhibitor Library, vs whole-plate median): ATP (CellTiter-Glo 3D, CTG); conditions: for Dose.FC.CTG: FC vs plate median; for Dose.FC.CTG (log 2 fold change) / Dose.FC.CTG (log 2 fold change, ATP): vs plate median; for SSMD.CTG: strictly standardized mean difference
ISC-enriched organoids [2] = assay: Primary screen, 384-well 2.5-D organoid differentiation (ENR+CD, 6 days): carbachol-induced lysozyme secretion (LYZ.S); type: cell-based, murine; conditions: for Dose.FC.LYZ.S: FC vs plate median; for Dose.FC.LYZ.S (log 2 fold change) / Dose.FC.LYZ.S (log 2 fold change, carbachol-induced lysozyme secretion): vs plate median; for Z.LYZ.S: standard z score; for SSMD.LYZ.S: strictly standardized mean difference
Source text: (§1) High-throughput screening.

ISC-enriched organoids [3] = assay: Primary screen, 384-well 2.5-D organoid differentiation (ENR+CD, 6 days): basal lysozyme secretion (LYZ.NS); type: cell-based, murine; conditions: for Dose.FC.LYZ.NS: FC vs plate median; for Dose.FC.LYZ.NS (log 2 fold change) / Dose.FC.LYZ.NS (log 2 fold change, basal lysozyme secretion): vs plate median; for SSMD.LYZ.NS: strictly standardized mean difference
Source text: as §1

[4] = Dose 0.08 uM, standard z score of FC
[5] = Dose 0.40 uM, standard z score of FC
[6] = Dose 2.00 uM, standard z score of FC
[7] = Dose 10.00 uM, standard z score of FC
[8] = Dose 0.08 uM, primary screen, standard z score
[9] = Dose 0.40 uM, primary screen, standard z score
[10] = Dose 2.00 uM, primary screen, standard z score
[11] = Dose 10.00 uM, primary screen, standard z score
[12] = primary screen, 1st of the 4 dose lines of the treatment (dose not given)
[13] = primary screen, 2nd of the 4 dose lines of the treatment (dose not given)
[14] = primary screen, 3rd of the 4 dose lines of the treatment (dose not given)
[15] = primary screen, 4th of the 4 dose lines of the treatment (dose not given)

## O=C(Nc1cccc(Nc2ncc(Br)c(NCCc3cnc[nH]3)n2)c1)N1CCCC1 [BX-912]
ISC-enriched organoids [1]; Dose 0.08 uM, ENR+CD, 6 days
  Dose.FC.CTG: 0.043 log 2 fold change
ISC-enriched organoids [1]; [4]
  Z.CTG: 0.103
ISC-enriched organoids [1]; Dose 0.40 uM, ENR+CD, 6 days
  Dose.FC.CTG: 0.054 log 2 fold change
ISC-enriched organoids [1]; [5]
  Z.CTG: 0.129
ISC-enriched organoids [1]; Dose 2.00 uM, ENR+CD, 6 days
  Dose.FC.CTG: −0.246 log 2 fold change
ISC-enriched organoids [1]; [6]
  Z.CTG: −0.587
ISC-enriched organoids [1]; Dose 10.00 uM, ENR+CD, 6 days
  Dose.FC.CTG: −0.397 log 2 fold change
ISC-enriched organoids [1]; [7]
  Z.CTG: −0.949
ISC-enriched organoids [2]; Dose 0.08 uM, ENR+CD, 6 days
  Dose.FC.LYZ.S: 0.038 log 2 fold change
ISC-enriched organoids [2]; Dose 0.40 uM, ENR+CD, 6 days
  Dose.FC.LYZ.S: 0.042 log 2 fold change
ISC-enriched organoids [2]; Dose 2.00 uM, ENR+CD, 6 days
  Dose.FC.LYZ.S: −0.161 log 2 fold change
ISC-enriched organoids [2]; Dose 10.00 uM, ENR+CD, 6 days
  Dose.FC.LYZ.S: −0.272 log 2 fold change
ISC-enriched organoids [3]; Dose 0.08 uM, ENR+CD, 6 days
  Dose.FC.LYZ.NS: 0.010 log 2 fold change
ISC-enriched organoids [3]; [4]
  Z.LYZ.NS: 0.090
ISC-enriched organoids [3]; Dose 0.40 uM, ENR+CD, 6 days
  Dose.FC.LYZ.NS: 0.017 log 2 fold change
ISC-enriched organoids [3]; [5]
  Z.LYZ.NS: 0.151
ISC-enriched organoids [3]; Dose 2.00 uM, ENR+CD, 6 days
  Dose.FC.LYZ.NS: −0.089 log 2 fold change
ISC-enriched organoids [3]; [6]
  Z.LYZ.NS: −0.771
ISC-enriched organoids [3]; Dose 10.00 uM, ENR+CD, 6 days
  Dose.FC.LYZ.NS: −0.196 log 2 fold change
ISC-enriched organoids [3]; [7]
  Z.LYZ.NS: −1.704

## COc1cc2c(N3CCN(C(=O)Nc4ccc(OC(C)C)cc4)CC3)ncnc2cc1OCCCN1CCCCC1 [Tandutinib (MLN518)]
ISC-enriched organoids [1]; Dose 0.08 uM, primary screen
  Z.CTG (standard z score): 1.397
  Dose.FC.CTG (log 2 fold change): 0.585
ISC-enriched organoids [1]; Dose 0.40 uM, primary screen
  Z.CTG (standard z score): 0.845
  Dose.FC.CTG (log 2 fold change): 0.354
ISC-enriched organoids [1]; Dose 2.00 uM, primary screen
  Z.CTG (standard z score): 0.856
  Dose.FC.CTG (log 2 fold change): 0.358
ISC-enriched organoids [1]; Dose 10.00 uM, primary screen
  Z.CTG (standard z score): 1.401
  Dose.FC.CTG (log 2 fold change): 0.586
ISC-enriched organoids [2]; Dose 0.08 uM, primary screen
  Dose.FC.LYZ.S (log 2 fold change): 0.145
ISC-enriched organoids [2]; Dose 0.40 uM, primary screen
  Dose.FC.LYZ.S (log 2 fold change): 0.178
ISC-enriched organoids [2]; Dose 2.00 uM, primary screen
  Dose.FC.LYZ.S (log 2 fold change): 0.093
ISC-enriched organoids [2]; Dose 10.00 uM, primary screen
  Dose.FC.LYZ.S (log 2 fold change): 0.100
ISC-enriched organoids [3]; Dose 0.08 uM, primary screen
  Z.LYZ.NS (standard z score): 0.828
  Dose.FC.LYZ.NS (log 2 fold change): 0.095
ISC-enriched organoids [3]; Dose 0.40 uM, primary screen
  Z.LYZ.NS (standard z score): 1.066
  Dose.FC.LYZ.NS (log 2 fold change): 0.122
ISC-enriched organoids [3]; Dose 2.00 uM, primary screen
  Z.LYZ.NS (standard z score): 1.012
  Dose.FC.LYZ.NS (log 2 fold change): 0.116
ISC-enriched organoids [3]; Dose 10.00 uM, primary screen
  Z.LYZ.NS (standard z score): 0.407
  Dose.FC.LYZ.NS (log 2 fold change): 0.047

## CCCCNc1ncc(-c2ccc(CN3CCOCC3)cn2)c(NC2CCC(O)CC2)n1 (stereo not drawn) [UNC2250]
ISC-enriched organoids [1]; dose 0.08 uM
  Z.CTG (standard z score): 0.633
  Dose.FC.CTG (log 2 fold change, ATP): 0.265
ISC-enriched organoids [1]; dose 0.40 uM
  Z.CTG (standard z score): 0.667
  Dose.FC.CTG (log 2 fold change, ATP): 0.279
ISC-enriched organoids [1]; dose 2.00 uM
  Z.CTG (standard z score): 0.250
  Dose.FC.CTG (log 2 fold change, ATP): 0.105
ISC-enriched organoids [1]; dose 10.00 uM
  Z.CTG (standard z score): −0.153
  Dose.FC.CTG (log 2 fold change, ATP): −0.064
ISC-enriched organoids [2]; dose 0.08 uM
  Dose.FC.LYZ.S (log 2 fold change, carbachol-induced lysozyme secretion): 0.142
ISC-enriched organoids [2]; dose 0.40 uM
  Dose.FC.LYZ.S (log 2 fold change, carbachol-induced lysozyme secretion): 0.113
ISC-enriched organoids [2]; dose 2.00 uM
  Dose.FC.LYZ.S (log 2 fold change, carbachol-induced lysozyme secretion): 0.134
ISC-enriched organoids [2]; dose 10.00 uM
  Dose.FC.LYZ.S (log 2 fold change, carbachol-induced lysozyme secretion): −0.205
ISC-enriched organoids [3]; dose 0.08 uM
  Z.LYZ.NS (standard z score): 1.005
  Dose.FC.LYZ.NS (log 2 fold change, basal lysozyme secretion): 0.115
ISC-enriched organoids [3]; dose 0.40 uM
  Z.LYZ.NS (standard z score): 0.587
  Dose.FC.LYZ.NS (log 2 fold change, basal lysozyme secretion): 0.067
ISC-enriched organoids [3]; dose 2.00 uM
  Z.LYZ.NS (standard z score): 0.744
  Dose.FC.LYZ.NS (log 2 fold change, basal lysozyme secretion): 0.085
ISC-enriched organoids [3]; dose 10.00 uM
  Z.LYZ.NS (standard z score): −1.336
  Dose.FC.LYZ.NS (log 2 fold change, basal lysozyme secretion): −0.153

## O=C(c1ccc(Nc2nccc(-c3cc4ccccc4s3)n2)cc1)N1CCC(N2CCCC2)CC1 [IKK-16 (IKK Inhibitor VII)]
ISC-enriched organoids [1]; Dose 0.08 uM, primary screen
  Dose.FC.CTG: 0.058 log 2 fold change
ISC-enriched organoids [1]; [8]
  Z.CTG: 0.139
ISC-enriched organoids [1]; Dose 0.40 uM, primary screen
  Dose.FC.CTG: −0.051 log 2 fold change
ISC-enriched organoids [1]; [9]
  Z.CTG: −0.122
ISC-enriched organoids [1]; Dose 2.00 uM, primary screen
  Dose.FC.CTG: −0.431 log 2 fold change
ISC-enriched organoids [1]; [10]
  Z.CTG: −1.029
ISC-enriched organoids [1]; Dose 10.00 uM, primary screen
  Dose.FC.CTG: −0.950 log 2 fold change
ISC-enriched organoids [1]; [11]
  Z.CTG: −2.268
ISC-enriched organoids [1]; [12]
  SSMD.CTG: 0.131
ISC-enriched organoids [1]; [13]
  SSMD.CTG: −0.190
ISC-enriched organoids [1]; [14]
  SSMD.CTG: −0.877
ISC-enriched organoids [1]; [15]
  SSMD.CTG: −1.581
ISC-enriched organoids [2]; Dose 0.08 uM, primary screen
  Dose.FC.LYZ.S: 0.092 log 2 fold change
ISC-enriched organoids [2]; Dose 0.40 uM, primary screen
  Dose.FC.LYZ.S: 0.028 log 2 fold change
ISC-enriched organoids [2]; Dose 2.00 uM, primary screen
  Dose.FC.LYZ.S: −0.142 log 2 fold change
ISC-enriched organoids [2]; Dose 10.00 uM, primary screen
  Dose.FC.LYZ.S: −0.383 log 2 fold change
ISC-enriched organoids [2]; [12]
  Z.LYZ.S: 0.593
  SSMD.LYZ.S: 0.496
ISC-enriched organoids [2]; [13]
  Z.LYZ.S: 0.179
  SSMD.LYZ.S: 0.203
ISC-enriched organoids [2]; [14]
  Z.LYZ.S: −0.918
  SSMD.LYZ.S: −0.698
ISC-enriched organoids [2]; [15]
  Z.LYZ.S: −2.475
  SSMD.LYZ.S: −1.351
ISC-enriched organoids [3]; Dose 0.08 uM, primary screen
  Dose.FC.LYZ.NS: 0.104 log 2 fold change
ISC-enriched organoids [3]; [8]
  Z.LYZ.NS: 0.903
ISC-enriched organoids [3]; Dose 0.40 uM, primary screen
  Dose.FC.LYZ.NS: 0.020 log 2 fold change
ISC-enriched organoids [3]; [9]
  Z.LYZ.NS: 0.176
ISC-enriched organoids [3]; Dose 2.00 uM, primary screen
  Dose.FC.LYZ.NS: −0.081 log 2 fold change
ISC-enriched organoids [3]; [10]
  Z.LYZ.NS: −0.708
ISC-enriched organoids [3]; Dose 10.00 uM, primary screen
  Dose.FC.LYZ.NS: −0.291 log 2 fold change
ISC-enriched organoids [3]; [11]
  Z.LYZ.NS: −2.531
ISC-enriched organoids [3]; [12]
  SSMD.LYZ.NS: 0.817
ISC-enriched organoids [3]; [13]
  SSMD.LYZ.NS: 0.207
ISC-enriched organoids [3]; [14]
  SSMD.LYZ.NS: −0.481
ISC-enriched organoids [3]; [15]
  SSMD.LYZ.NS: −2.119
